In the CheMixHub viscosity set:

Experiment: xn = mol fraction of the nth substance listed

CC(C)NC(C)C + CCCCO
viscosity [mPa·s], 100 kPa
Conditions | 298.15 K | 303.15 K | 308.15 K
x1 = 0.0499 | 2.316 | 2.061 | 1.793
x1 = 0.1095 | 2.056 | 1.834 | 1.609
x1 = 0.1542 | 1.88 | 1.688 | 1.483
x1 = 0.2062 | 1.699 | 1.529 | 1.353
x1 = 0.25 | 1.552 | 1.405 | 1.251
x1 = 0.2969 | 1.414 | 1.285 | 1.149
x1 = 0.4059 | 1.129 | 1.037 | 0.94
x1 = 0.5062 | 0.916 | 0.849 | 0.777
x1 = 0.6009 | 0.755 | 0.707 | 0.656
x1 = 0.7043 | 0.62 | 0.583 | 0.548
x1 = 0.8059 | 0.516 | 0.489 | 0.467
x1 = 0.8543 | 0.477 | 0.451 | 0.432
x1 = 0.8987 | 0.444 | 0.42 | 0.402
x1 = 0.9489 | 0.408 | 0.391 | 0.374

CC(C)NC(C)C + CCCCOCCO
viscosity [mPa·s], 100 kPa
Conditions | 298.15 K | 303.15 K | 308.15 K
x2 = 0.0501 | 0.42 | 0.4 | 0.38
x2 = 0.1005 | 0.47 | 0.44 | 0.42
x2 = 0.15 | 0.54 | 0.5 | 0.47
x2 = 0.2024 | 0.63 | 0.58 | 0.54
x2 = 0.2999 | 0.8 | 0.73 | 0.68
x2 = 0.3999 | 1.06 | 0.95 | 0.89
x2 = 0.5001 | 1.38 | 1.23 | 1.14
x2 = 0.6002 | 1.77 | 1.56 | 1.42
x2 = 0.6997 | 2.14 | 1.85 | 1.68
x2 = 0.7998 | 2.48 | 2.14 | 1.95
x2 = 0.8999 | 2.74 | 2.39 | 2.14
x2 = 0.9499 | 2.82 | 2.47 | 2.21

CCC(=O)c1ccccc1 + CCCCOCCO
viscosity [mPa·s], 101 kPa
Conditions | x1 = 0.0996 | x1 = 0.1994 | x1 = 0.2992 | x1 = 0.399 | x1 = 0.499 | x1 = 0.599 | x1 = 0.6992 | x1 = 0.7994 | x1 = 0.8996
303.15 K | 2.333 | 2.24 | 2.148 | 2.056 | 1.964 | 1.873 | 1.782 | 1.692 | 1.602
308.15 K | 2.192 | 2.109 | 2.027 | 1.946 | 1.865 | 1.784 | 1.704 | 1.624 | 1.545
313.15 K | 2.044 | 1.972 | 1.901 | 1.831 | 1.762 | 1.692 | 1.622 | 1.554 | 1.486
318.15 K | 1.863 | 1.805 | 1.749 | 1.694 | 1.639 | 1.584 | 1.53 | 1.476 | 1.424

CC(C)(C)C(=O)O + CCCN(CCC)CCC
viscosity [mPa·s], 101 kPa
Conditions | 293.15 K | 298.15 K | 303.15 K | 308.15 K | 313.15 K | 318.15 K | 323.15 K
x1 = 0.1 | 1.239 | 1.113 | 1.09 | 1.007 | 0.961 | – | –
x1 = 0.2 | 1.593 | 1.416 | 1.371 | 1.265 | 1.163 | 1.088 | 1.017
x1 = 0.3 | 1.998 | 1.897 | 1.631 | 1.619 | 1.474 | 1.375 | 1.285
x1 = 0.4 | 3.304 | 2.795 | 2.479 | 2.325 | 2.14 | 1.94 | 1.79
x1 = 0.5 | 5.525 | 4.857 | 3.946 | 3.56 | 3.069 | 2.62 | 2.72
x1 = 0.6 | 14.34 | 11.43 | 9.15 | 7.47 | 6.17 | 5 | 4.15
x1 = 0.7 | 41.75 | 29.64 | 21.72 | 16.62 | 12.77 | 10.24 | 8.33
x1 = 0.725 | 62.84 | 43.6 | 31.12 | 22.68 | 17.62 | 14.04 | 11.21
x1 = 0.75 | 69.2 | 52.11 | 39.98 | 28.77 | 21.17 | 17.53 | 13.24
x1 = 0.8 | 54.33 | 40.03 | 28.38 | 21.17 | 16.84 | 13.12 | 10.81
x1 = 0.9 | 15.35 | 11.96 | 9.46 | 7.88 | 6.57 | 5.51 | 4.73

CCOC(=O)CC(C)=O + CCCO
viscosity [mPa·s], 100 kPa
Conditions | x1 = 0.0644 | x1 = 0.1297 | x1 = 0.2035 | x1 = 0.2808 | x1 = 0.3716 | x1 = 0.4706 | x1 = 0.5808 | x1 = 0.7083 | x1 = 0.8379
293.15 K | 1.907 | 1.663 | 1.448 | 1.344 | 1.321 | 1.346 | 1.395 | 1.46 | 1.563
298.15 K | 1.675 | 1.515 | 1.404 | 1.32 | 1.279 | 1.281 | 1.295 | 1.336 | 1.413

OCCO + CCCO
Conditions | viscosity [mPa·s]
298.15 K, 101 kPa, x1 = 0.442 | 4.972
298.15 K, 101.33 kPa, x1 = 0.0111 | 2.005
298.15 K, 101.33 kPa, x1 = 0.0207 | 2.055
298.15 K, 101.33 kPa, x1 = 0.0321 | 2.115
298.15 K, 101.33 kPa, x1 = 0.0482 | 2.198
298.15 K, 101.33 kPa, x1 = 0.0722 | 2.331
298.15 K, 101.33 kPa, x1 = 0.0979 | 2.467
298.15 K, 101.33 kPa, x1 = 0.1442 | 2.723
298.15 K, 101.33 kPa, x1 = 0.1912 | 3.012
298.15 K, 101.33 kPa, x1 = 0.2372 | 3.32
298.15 K, 101.33 kPa, x1 = 0.2938 | 3.751
298.15 K, 101.33 kPa, x1 = 0.345 | 4.192
298.15 K, 101.33 kPa, x1 = 0.3886 | 4.617
298.15 K, 101.33 kPa, x1 = 0.4295 | 5.053
298.15 K, 101.33 kPa, x1 = 0.4681 | 5.512
298.15 K, 101.33 kPa, x1 = 0.5096 | 6.052
298.15 K, 101.33 kPa, x1 = 0.5452 | 6.565
298.15 K, 101.33 kPa, x1 = 0.5843 | 7.175
298.15 K, 101.33 kPa, x1 = 0.6533 | 8.397
298.15 K, 101.33 kPa, x1 = 0.6993 | 9.322
298.15 K, 101.33 kPa, x1 = 0.7522 | 10.5
298.15 K, 101.33 kPa, x1 = 0.7998 | 11.68
298.15 K, 101.33 kPa, x1 = 0.84 | 12.75
298.15 K, 101.33 kPa, x1 = 0.8875 | 14.13
298.15 K, 101.33 kPa, x1 = 0.918 | 15.08
298.15 K, 101.33 kPa, x1 = 0.9609 | 16.5
298.15 K, 101.33 kPa, x2 = 0.0188 | 17.2
308.15 K, 101 kPa, x1 = 0.442 | 3.67
318.15 K, 101 kPa, x1 = 0.442 | 2.755
